Results: PubChem BioAssay (NCI)
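Tested at 5 concentrations; 48 h exposure; 96-well plates; endpoints linearly interpolated, else capped at highest concentration. TGI denotes the concentration required for complete inhibition of growth.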

Tests used:
Experiment in all cases: growth of human tumour cells (NCI), 48 h
HCT-116 colon = test system: HCT-116 colon
UO-31 renal = test system: UO-31 renal
MCF7 breast = test system: MCF7 breast
M14 melanoma = test system: M14 melanoma
HOP-62 NSCLC = test system: HOP-62 NSCLC
IGROV1 ovarian = test system: IGROV1 ovarian
UACC-257 melanoma = test system: UACC-257 melanoma
SK-OV-3 ovarian = test system: SK-OV-3 ovarian
NCI-H23 lung = test system: NCI-H23 lung
MOLT-4 leukemia = test system: MOLT-4 leukemia
A549 NSCLC = test system: A549 NSCLC
SF-268 CNS = test system: SF-268 CNS
K-562 leukemia = test system: K-562 leukemia
NCI-H226 lung = test system: NCI-H226 lung
SN12C renal = test system: SN12C renal
LOX IMVI melanoma = test system: LOX IMVI melanoma
HCT-15 colon = test system: HCT-15 colon
KM12 colon = test system: KM12 colon
CCRF-CEM leukemia = test system: CCRF-CEM leukemia
OVCAR-4 ovarian = test system: OVCAR-4 ovarian
HOP-92 NSCLC = test system: HOP-92 NSCLC
HT29 colon = test system: HT29 colon
BT-549 breast = test system: BT-549 breast
RXF 393 renal = test system: RXF 393 renal
HCC-2998 colon = test system: HCC-2998 colon
OVCAR-5 ovarian = test system: OVCAR-5 ovarian
TK-10 renal = test system: TK-10 renal
U251 CNS = test system: U251 CNS
SNB-75 CNS = test system: SNB-75 CNS
ACHN renal = test system: ACHN renal
MDA-MB-231 breast = test system: MDA-MB-231 breast
MDA-MB-435 = test system: MDA-MB-435
OVCAR-8 ovarian = test system: OVCAR-8 ovarian
NCI/ADR-RES ovarian = test system: NCI/ADR-RES ovarian
T-47D breast = test system: T-47D breast
SK-MEL-2 melanoma = test system: SK-MEL-2 melanoma
PC-3 prostate = test system: PC-3 prostate
CAKI-1 renal = test system: CAKI-1 renal
RPMI-8226 leukemia = test system: RPMI-8226 leukemia
EKVX NSCLC = test system: EKVX NSCLC
SF-295 CNS = test system: SF-295 CNS
SNB-19 CNS = test system: SNB-19 CNS
OVCAR-3 ovarian = test system: OVCAR-3 ovarian
SF-539 CNS = test system: SF-539 CNS
SW-620 colon = test system: SW-620 colon
DU-145 prostate = test system: DU-145 prostate
A498 renal = test system: A498 renal
UACC-62 melanoma = test system: UACC-62 melanoma
SK-MEL-28 melanoma = test system: SK-MEL-28 melanoma
NCI-H522 lung = test system: NCI-H522 lung
SK-MEL-5 melanoma = test system: SK-MEL-5 melanoma
HS 578T breast = test system: HS 578T breast
COLO 205 colon = test system: COLO 205 colon
786-0 renal = test system: 786-0 renal

Measured: TGI

NC1CC(=O)c2ccccc21 (centres undefined)
> 100 µM: all assays above
